Measured values reported in paper PMC12382740, “In Vitro and In Vivo Characterization of Novel Cathelicidin-Based Peptides with Antimicrobial Activity Against Pseudomonas aeruginosa” (Antibiotics, 2025).
Read-outs that look alike come from different tables or passages of the source. Square brackets hold non-standard residues; d marks the D form. Peptide text beside a SMILES is read from it.

What was measured:
HeLa cells = format: cell-based, human; conditions: 24 h
Experimental: (§1) Cell viability assays were performed against HeLa and A549 cells. Cells were seeded in Corning 96-well microplates at 2 × 10^3 cells/well and 5 × 10^3 cells/well and incubated for 24 h at 37 °C. Then, cells were treated with peptides dissolved in Dulbecco’s Modified Eagle’s Medium for 24 h; peptide concentration range 0.1–100 µM. The peptide solution was then removed, and fresh medium was added to the cells. Finally, 50 µL of activated-XTT solution was added and incubated for 4 h at 37 °C. A PowerWave X reader (BioTek, Winooski, VT, USA) was used to measure absorbance at 450 nm. Cell viability was calculated through the ratio of the absorbance of peptide-treated cells over the absorbance of untreated cells. Triplicates were run for each experiment.

A549 cells = format: cell-based, human; conditions: for IC50: 24 h; for A549 IC50: 24 h treatment, XTT, value in brackets
Experimental: as §1

[1] = test system: P. aeruginosa strain panel; format: cell-based, Pseudomonas aeruginosa
Experimental: (§2) The antimicrobial activity of the peptides was tested against a collection of P. aeruginosa, selected by their resistance or susceptibility to colistin and/or classified as MDR strains. The origin of the strains was either clinical, relevant to the current clinical situation, or commercial strains belonging to the American Type Culture Collection (ATCC, Manassas, VA, USA), which complemented the collection for comparison and control. For the initial activity screening of the 17 peptides, we tested them against P. aeruginosa ATCC strains 1211007 and 1211101. Both strains are multidrug-resistant; however, the key difference is that strain 1211007 is susceptible to colistin, whereas strain 1211101 is resistant to colistin.
(§3) Minimum Inhibitory Concentration (MIC) of the antimicrobial agents against bacterial strains was obtained through broth microdilution assays following a protocol based on the Clinical & Laboratory Standards Institute’s guidelines. Modifications regarding microplate material and broth were included when testing the peptides’ activity and are detailed below. Colistin MICs were obtained following recommendations of the joint CLSI-EUCAST Polymyxin Breakpoints Working Group using Cation Adjusted Mueller-Hinton Broth (90922, 500 g Sigma-Aldrich®, St. Louis, MO, USA), and strains Escherichia coli 13846 (mcr-1 positive) and P. aeruginosa ATCC 27853 were used as quality controls in all assays. Bacteria were cultured in Columbia Agar plates (Columbia Agar with 5% Sheep Blood 90 mm Stacker plates, Becton Dickinson, Franklin Lakes, NJ, USA) and incubated overnight at 37 °C. Polypropylene round-bottomed 96-well plates (-96-well Polypropylene Storage Microplates, 267334, Thermo Fischer Scientific, Waltham, MA, USA) were used to prevent peptide binding to plate walls. AST broth (BD Phoenix™ AST broth, 8 mL, 246003, Becton Dickinson, Franklin Lakes, NJ, USA) was used when testing the peptides’ activity. […] Three biological and technical replicates were performed per strain.

[2] = test system: P. aeruginosa Strain ATCC 121110; format: cell-based, Pseudomonas aeruginosa
Experimental: as §2, §3

[3] = test system: P. aeruginosa Strain 121007; format: cell-based, Pseudomonas aeruginosa
Experimental: as §2, §3

[4] = panel of 15 P. aeruginosa strains
[5] = panel of 15 P. aeruginosa strains, value in brackets
[6] = Strain ATCC 121110, value in brackets
[7] = Strain 121007, value in brackets

Compound | IC50 (HeLa cells) [µM] | IC50 (A549 cells) [µM] | A549 IC50 (A549 cells) [mg/L] | MIC50 [1, 4] [mg/L] | MIC90 [1, 4] [mg/L] | MIC50 [1, 5] [µM] | MIC90 [1, 5] [µM] | MIC90 ([1]; strain panel) [mg/L] | MIC ([2]; Strain ATCC 121110) [mg/L] | MIC [2, 6] [µM] | MIC ([3]; Strain 121007) [mg/L] | MIC [3, 7] [µM] | MIC50 ([1]; strain panel) [mg/L]
CC[C@@H](C)[C@@H](NC(=O)[C@@H](CCCCN)NC(=O)[C@@H](CCCCN)NC(=O)[C@@H](CC(C)C)NC(=O)[C@@H](CCCCN)NC(=O)[C@@H](CCC(=O)O)NC(=O)[C@@H](CCCCN)NC(=O)[C@H](NC(=O)[C@@H](CCCCN)NC(=O)[C@@H](CC(N)=O)NC(=O)[C@@H](CCCNC(=N)N)NC(=O)[C@@H](Cc1ccccc1)NC(=O)[C@@H](CCCCN)NC(=O)[C@@H](CCCNC(=N)N)NC(=O)[C@@H](CC(C)C)NC(=O)[C@@H](CCCNC(=N)N)NC(=O)[C@@H](CCCCN)NC(=O)[C@@H](CCCNC(=N)N)NC(=O)[C@@H](CC(C)C)NC(=O)CN)[C@H](C)CC)C(=O)NCC(=O)N[C@H](CCC(N)=O)C(=O)N[C@H](CCCCN)C(=O)N[C@@H](C(=O)N[C@H](CCC(N)=O)C(=O)NCC(=O)N[C@H](CC(C)C)C(=O)N[C@H](CC(C)C)C(=O)N1CCC[C@@H]1C(=O)N[C@H](CCCCN)C(=O)N[C@H](CC(C)C)C(=O)O)[C@H](C)CC [D-CAP-18_31, Glrkrlrkfrnkikeklkkigqkiqgllpkl] (H-G[dL][dR][dK][dR][dL][dR][dK][dF][dR][dN][dK][dI][dK][dE][dK][dL][dK][dK][dI]G[dQ][dK][dI][dQ]G[dL][dL][dP][dK][dL]-OH) | 6.16 | 12.3 | 45.94 | 4 | 16 | 1.1 | 4.3 | 16 | 0.25 | 0.07 | 2 | 0.5 | –
H-GLRKRLRKFRNKIKEKLKKIGQKIQGLLPKL-OH [CAP-18_31] | 13.1 | 1.31 | 4.89 | 2 | 16 | 0.5 | 4.3 | – | 0.5 | 0.1 | 8 | 2.1 | 2
